The values that follow come from ChEMBL document CHEMBL5465560, “Selectivity Literature for EUbOPEN Chemogenomic Library” (2024).

In assay [1] the target is T1, Ephrin type-B receptor 2 (Homo sapiens) (UniProt P29323).
T1 sequence (whole entry): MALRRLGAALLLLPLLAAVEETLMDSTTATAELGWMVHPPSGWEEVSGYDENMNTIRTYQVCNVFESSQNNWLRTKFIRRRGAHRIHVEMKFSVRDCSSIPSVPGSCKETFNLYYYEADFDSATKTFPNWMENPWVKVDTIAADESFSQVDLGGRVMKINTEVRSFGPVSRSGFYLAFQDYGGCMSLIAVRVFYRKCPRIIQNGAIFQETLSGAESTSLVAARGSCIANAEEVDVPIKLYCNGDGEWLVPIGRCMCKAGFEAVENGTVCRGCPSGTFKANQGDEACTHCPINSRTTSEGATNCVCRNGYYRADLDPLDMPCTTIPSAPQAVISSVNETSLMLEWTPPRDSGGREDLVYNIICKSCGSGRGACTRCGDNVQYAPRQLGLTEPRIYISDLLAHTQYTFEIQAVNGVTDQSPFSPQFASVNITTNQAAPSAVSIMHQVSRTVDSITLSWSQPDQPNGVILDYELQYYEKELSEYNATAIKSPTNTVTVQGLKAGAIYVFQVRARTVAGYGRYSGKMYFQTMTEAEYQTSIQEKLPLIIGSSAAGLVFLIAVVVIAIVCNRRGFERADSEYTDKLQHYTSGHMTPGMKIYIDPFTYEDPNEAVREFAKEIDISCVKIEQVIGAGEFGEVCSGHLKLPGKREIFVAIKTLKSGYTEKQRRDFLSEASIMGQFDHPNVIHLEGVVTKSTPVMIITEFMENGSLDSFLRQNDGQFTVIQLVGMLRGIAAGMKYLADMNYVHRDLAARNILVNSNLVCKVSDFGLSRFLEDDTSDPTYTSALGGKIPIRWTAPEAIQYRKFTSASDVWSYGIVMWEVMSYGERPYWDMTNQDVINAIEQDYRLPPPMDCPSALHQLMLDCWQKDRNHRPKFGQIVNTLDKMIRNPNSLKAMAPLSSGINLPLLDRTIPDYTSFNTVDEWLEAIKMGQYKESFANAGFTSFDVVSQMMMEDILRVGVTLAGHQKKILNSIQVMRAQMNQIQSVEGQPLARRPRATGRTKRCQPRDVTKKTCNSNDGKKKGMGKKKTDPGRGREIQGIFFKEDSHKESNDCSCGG
The assay can be described thus: Selectivity interaction (Upstate Kinase Profiler service (Millipore)) EUB0000056c EPHB2. Particulars: at 1 µM.

The target in assay [2] is T2, Bone morphogenetic protein receptor type-2 (Homo sapiens) (UniProt Q13873).
T2 sequence (whole entry): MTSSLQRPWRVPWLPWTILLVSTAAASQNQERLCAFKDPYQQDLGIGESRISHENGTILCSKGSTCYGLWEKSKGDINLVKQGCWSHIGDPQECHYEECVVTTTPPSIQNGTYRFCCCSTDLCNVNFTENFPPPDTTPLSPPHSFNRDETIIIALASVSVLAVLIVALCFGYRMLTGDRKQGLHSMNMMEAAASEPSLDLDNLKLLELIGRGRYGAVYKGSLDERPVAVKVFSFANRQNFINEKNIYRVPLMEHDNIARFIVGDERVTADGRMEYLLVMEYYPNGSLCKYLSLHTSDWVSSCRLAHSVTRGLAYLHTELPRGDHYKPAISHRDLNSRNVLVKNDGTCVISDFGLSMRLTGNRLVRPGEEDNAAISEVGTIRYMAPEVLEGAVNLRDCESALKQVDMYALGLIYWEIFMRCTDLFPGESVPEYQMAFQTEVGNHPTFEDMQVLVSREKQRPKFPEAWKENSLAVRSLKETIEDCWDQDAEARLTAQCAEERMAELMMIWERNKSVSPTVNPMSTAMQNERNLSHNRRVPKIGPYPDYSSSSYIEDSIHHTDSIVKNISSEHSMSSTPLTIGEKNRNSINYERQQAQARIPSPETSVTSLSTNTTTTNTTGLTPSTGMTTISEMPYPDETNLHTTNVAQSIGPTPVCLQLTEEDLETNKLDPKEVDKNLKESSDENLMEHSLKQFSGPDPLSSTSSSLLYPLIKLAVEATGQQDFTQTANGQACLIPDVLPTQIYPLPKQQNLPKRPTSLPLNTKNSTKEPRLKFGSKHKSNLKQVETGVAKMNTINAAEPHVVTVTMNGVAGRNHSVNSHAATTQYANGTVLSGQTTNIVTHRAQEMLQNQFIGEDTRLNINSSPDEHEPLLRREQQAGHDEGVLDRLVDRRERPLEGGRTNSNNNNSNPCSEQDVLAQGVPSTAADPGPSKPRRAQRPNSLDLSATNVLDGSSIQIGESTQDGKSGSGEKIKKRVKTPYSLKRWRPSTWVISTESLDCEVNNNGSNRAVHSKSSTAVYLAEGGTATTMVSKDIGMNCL
The assay can be described thus: Selectivity interaction (KinomeScan (DiscoverX)) EUB0001079a BMPR2. Particulars: at 1 µM.

The target in assay [3] is T3, Interleukin-1 receptor-associated kinase 4 (Homo sapiens, UniProt Q9NWZ3).
T3 sequence (Q9NWZ3 whole entry): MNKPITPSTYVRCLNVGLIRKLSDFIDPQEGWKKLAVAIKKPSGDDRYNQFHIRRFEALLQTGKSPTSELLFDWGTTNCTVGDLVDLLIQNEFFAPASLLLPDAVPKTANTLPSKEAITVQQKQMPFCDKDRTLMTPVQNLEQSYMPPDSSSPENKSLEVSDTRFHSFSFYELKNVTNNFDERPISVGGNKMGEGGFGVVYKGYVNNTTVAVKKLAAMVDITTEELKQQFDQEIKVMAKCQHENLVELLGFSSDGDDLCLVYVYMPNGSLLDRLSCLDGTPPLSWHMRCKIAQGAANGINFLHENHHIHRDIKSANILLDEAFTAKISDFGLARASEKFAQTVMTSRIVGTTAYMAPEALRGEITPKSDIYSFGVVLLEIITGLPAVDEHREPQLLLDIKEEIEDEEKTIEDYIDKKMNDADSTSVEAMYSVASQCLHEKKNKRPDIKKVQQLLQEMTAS
The assay can be described thus: Selectivity interaction (Enzymatic assay) EUB0001550a IRAK4.

For assay [4], the target named is Serine/threonine-protein kinase PAK 4 (Homo sapiens, UniProt O96013). The assay can be described thus: Selectivity interaction (Kinase panel (DSF assay)) EUB0001559a PAK4. (DSF heats the sample and reads unfolding from a dye or from intrinsic fluorescence.)
Chain of Serine/threonine-protein kinase PAK 4 (O96013 whole entry, looked up): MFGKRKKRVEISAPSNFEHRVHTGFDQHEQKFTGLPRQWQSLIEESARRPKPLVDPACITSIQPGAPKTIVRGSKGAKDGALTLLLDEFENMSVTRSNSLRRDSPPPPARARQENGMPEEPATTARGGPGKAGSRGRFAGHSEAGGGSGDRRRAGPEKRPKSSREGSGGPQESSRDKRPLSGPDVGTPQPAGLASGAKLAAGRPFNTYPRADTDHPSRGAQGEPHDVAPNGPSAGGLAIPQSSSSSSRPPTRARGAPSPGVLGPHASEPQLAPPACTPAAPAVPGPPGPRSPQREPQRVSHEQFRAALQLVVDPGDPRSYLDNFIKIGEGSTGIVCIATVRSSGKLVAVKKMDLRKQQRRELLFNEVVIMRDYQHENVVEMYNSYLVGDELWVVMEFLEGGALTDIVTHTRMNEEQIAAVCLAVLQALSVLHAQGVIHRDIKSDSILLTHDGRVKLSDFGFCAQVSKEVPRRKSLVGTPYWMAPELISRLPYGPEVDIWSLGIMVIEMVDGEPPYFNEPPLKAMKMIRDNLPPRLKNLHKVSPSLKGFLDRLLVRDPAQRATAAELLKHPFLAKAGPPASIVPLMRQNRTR

Take `Cc1ccc(-c2ccc3c(ccc4sc5c(c43)NC[C@@H](C)NC5=O)n2)cn1`: the % of inhibition in assay [1] was -14%.
In the case of `Nc1cnc(N2CCc3cc(S(=O)(=O)Nc4c(F)cc(Cl)cc4F)cc(N4CCCC4=O)c32)nc1` [TP-020n], the % of control in assay [2] was 100%.
Consider `CN(C)CC#Cc1ccc2[nH]c3c(c2c1)-c1nc(N)ncc1CCC3`, for which the IC50 in assay [3] was determined as 4.5 µM. In other words, the single-digit micromolar range.
With `CN(C(=O)c1cnn2cccnc12)c1cc2c(cc1N1CCOCC1)C(=O)N(C[C@@H](F)C(C)(C)O)C2`, the dTM in assay [4] stood at 0.4 K.

The term IC50 denotes the concentration at which inhibition is half-maximal. A higher IC50 goes with a need for much substance.
